Laboratory results taken from US7235691B2, “Crystalline forms of modafinil” (priority 2000, dated 2007).

Key:
[1] = Heating of crystalline forms, analysed by x-ray powder diffraction; type: physicochemical; conditions: for chemical decomposition on heating: heating/drying at about 100° C.; for crystalline form after heating in an oven: about 30 minutes at about 100° C.
Protocol: X-ray diffraction data were acquired using a Philips powder X-ray diffractometer, Goniometer model 1050/70 at a scanning speed of 2° per minute, with a CUKα radiation of λ=1.5418 Å. The sample was gently ground and dusted over a zero background quartz plate to give a thin layer.
Forms V and VI convert into modafinil Form I upon gentle heating to about 80° C. or above.
Modafinil Form I may be separated from solvents conventionally by filtering or decanting and then drying.
By Heating Modafinil Forms V or VI A small aliquot of Modafinil Forms V and VI are heated separately, for about 30 minutes, in an oven at about 100° C.

[2] = type: physicochemical; conditions: for crystalline form conversion when suspended in water: time and temperature not stated; for crystalline form after suspension in distilled water: distilled water pH about 5.9, stirred about 24 hours at about 37° C.

NC(=O)C[S+]([O-])C(c1ccccc1)c1ccccc1 (racemic) [Form I, (±) 2-[(Diphenylmethyl)sulfinyl]acetamide, reference compound]
crystalline form after drying at elevated temperature ([1]; dried at a temperature as high as 100° C.): without converting to another crystalline or amorphous form | chemical decomposition on heating [1]: without undergoing significant chemical decomposition

NC(=O)C[S+]([O-])C(c1ccccc1)c1ccccc1 (racemic) [Form II, (±) 2-[(Diphenylmethyl)sulfinyl]acetamide]
crystalline form conversion when suspended in water [2]: converted into Form I modafinil

NC(=O)C[S+]([O-])C(c1ccccc1)c1ccccc1 (racemic) [Form III, (±) 2-[(Diphenylmethyl)sulfinyl]acetamide]
crystalline form after suspension in distilled water [2]: determined to be modafinil Form II | crystalline form conversion when suspended in water [2]: converts into modafinil Form II

NC(=O)C[S+]([O-])C(c1ccccc1)c1ccccc1 (racemic) [Form IV, (±) 2-[(Diphenylmethyl)sulfinyl]acetamide]
crystalline form after suspension in distilled water [2]: determined to be modafinil Form I

NC(=O)C[S+]([O-])C(c1ccccc1)c1ccccc1 (racemic) [Form V, (±) 2-[(Diphenylmethyl)sulfinyl]acetamide]
crystalline form after heating in an oven [1]: determined to be Form I | chemical decomposition on heating [1]: without significant decomposition

NC(=O)C[S+]([O-])C(c1ccccc1)c1ccccc1 (racemic) [Form VI, (±) 2-[(Diphenylmethyl)sulfinyl]acetamide]
crystalline form after heating in an oven [1]: determined to be Form I | chemical decomposition on heating [1]: without significant decomposition
